From patent US11318167B2, “Isolation of fusion-competent myoblasts and therapeutic applications thereof related to muscular dystrophy” (THE JOHNS HOPKINS UNIVERSITY, priority 2015, dated 2022)

Columns and labels:
[1] = tested on: MESOGENIN1::eGFP reporter human embryonic stem cell (hESC) line; test: MESOGENIN1::eGFP reporter hESC line, pre-somite mesoderm induction (day 4); type: cell-based
Source text: The present invention was created through a number of discoveries. First, to harness the potential of hPSCs, a protocol to direct hPSCs into the skeletal muscle lineage was developed. As the somite is an intermediate stage between hPSCs and myogenic progenitor cells (Bentzinger et al, 2012; Dequeant and Pourquie, 2008) (FIG. 6A), a MESOGENIN1::eGFP reporter human embryonic stem cell (hESC) line was generated with the CRISPR/Cas9 system (Mali et al, 2013) (FIG. 6B-6D), because MESOGENIN1 is a genetic marker for the pre-somite mesoderm fate (Fior et al., 2012). […] For myogenic differentiation, hESCs/hiPSCs were rendered to single cells using Accutase® solution, and plated on gelatin for 10 minutes to remove MEFs. Non-adherent cells were collected and plated on Geltrex™ treated dishes, at a density of 1.5×10^5 cells per well of a 24-well plate, in the presence of MEF-conditioned N2 media containing 10 ng/ml of FGF-2 and 10 μM of Y-27632 (Cayman Chemical Co.) (day 0). The N2 medium, described in detail, contains DMEM/F12 powder, glucose, sodium bicarbonate, insulin, putrescine, progesterone, sodium selenite, and transferrin. From the next day (day 1), media was changed at every other day. BIO (30 nM-250 nM), lithium chloride (20 μM-20 mM), Kenpallone (1 μM-10 μM), SB 216763 (1 μM-10 μM), WNT-1 (10 ng/ml-100 ng/ml), WNT-3A (10 ng/ml-100 ng/ml), WNT-7A (10 ng/ml-100 ng/ml), SBE13 hydrochloride (0.1 nM-10 μM), and OTSSP167 hydrochloride (0.1 nM-10 nM) were tested during day 1 to day 4, as well as during day 4 to day 8. Final concentrations of CHIR99021 and DAPT treatment are 3 μM and 10 μM, respectively.

[2] = tested on: canonical WNT signaling pathway; test: β-catenin translocation into the nucleus (canonical WNT signaling); type: cell-based, human
Source text: The present invention was created through a number of discoveries. First, to harness the potential of hPSCs, a protocol to direct hPSCs into the skeletal muscle lineage was developed. As the somite is an intermediate stage between hPSCs and myogenic progenitor cells (Bentzinger et al, 2012; Dequeant and Pourquie, 2008) (FIG. 6A), a MESOGENIN1::eGFP reporter human embryonic stem cell (hESC) line was generated with the CRISPR/Cas9 system (Mali et al, 2013) (FIG. 6B-6D), because MESOGENIN1 is a genetic marker for the pre-somite mesoderm fate (Fior et al., 2012).

[3] = tested on: control hiPSC-derived myoblasts; test: Effect of DMD-myoblast conditioned media / BMP4 on control hiPSC-derived myoblasts; type: cell-based, human; settings: BMP4 four concentrations, 7.5 μg/ml to 25 μg/ml; compared with inhibitive effect of DMD-myoblast CM
Method: FIG. 10A-10D is related to FIG. 5 and illustrates the effect of BMP4 on myoblasts and its pharmacological rescue. (A) Increased level of BMP4 expression in DMD-myoblasts than control myoblasts. (B-C) Inhibitive effect of conditioned media (CM, harvested after 24 hr incubation) from DMD-myoblasts on fusion index (B), and MYOG, and MYOD1 expression (C) of control hiPSC-derived myoblasts. […] (D) The decreased fusion index in DMD-CM-treated myoblasts was rescued by ‘dual SMAD inhibition’ compounds. (*, P≤0.05; ***, P≤0.001; ****, P≤0.0001, One-way ANOVA followed by Newman-Keuls test). n=3-5. All values represent means and s.d.
To find pharmacological rescue of the in vitro phenotypes, aberrant BMP and TGFβ signaling indicated by increased nuclear localization of pSMAD proteins in DMD-myoblasts (FIG. 3C-3D) was studied. Increased levels of BMP4 in the conditioned media (CM) of DMD-myoblasts (FIG. 10A) was detected. […] The effect of CM of DMD-myoblasts was reproduced by treatment with BMP4 protein in the culture media, which was reversed by treatment with ‘dual-SMAD’ inhibition compounds (FIG. 10D) (LDN+SB: LDN193189 and SB431542).

Molecule	expression of MESOGENIN1::eGFP (cells out of total cells in a dish) ([1]; brief treatment 4 days after day 0, read at day 4, final concentration 3 μM) [%]	expression of TBX6 (positive cells) ([1]; brief treatment 4 days, read at day 4) [%]	expression of PAX3 ([1]; brief treatment 4 days, read at day 4, dose-dependent manner)	β-catenin translocation into the nucleus [2]	MYOG and MYOD1 expression of control hiPSC-derived myoblasts [3]	fusion index of control hiPSC-derived myoblasts [3]
Cc1c[nH]c(-c2cnc(NCCNc3ccc(C#N)cn3)nc2-c2ccc(Cl)cc2Cl)n1.Cl [CHIR99021]	80.8±11.3	67.4±10.4	significantly increased expression	β-catenin translocation into the nucleus	–	–
BMP4: BMP4 protein added to the culture media (protein, UniProt P12644 293-408, looked up) Bone morphogenetic protein 4: SPKHHSQRARKKNKNCRRHSLYVDFSDVGWNDWIVAPPGYQAFYCHGDCPFPLADHLNSTNHAIVQTLVNSVNSSIPKACCVPTELSAISMLYLDEYDKVVLKNYQEMVVEGCGCR	–	–	–	–	recapitulated the effect of CM of DMD-myoblasts	recapitulated the effect of CM of DMD-myoblasts
